The results in this text go back to patent US6500824B1, “Kappa (OP2) opioid receptor antagonists” (Regents of the University of Minnesota, priority 1998, dated 2002).

Read-outs that look alike come from different tables or passages of the source.

Assay [1] relates to μ(OP3) opioid receptor. The assay can be described thus: Guinea pig ileal longitudinal muscle (GPI) smooth muscle assay, antagonism of morphine. Format: cell-based. The conditions noted are these: agonist morphine, antagonist concentration 100 nM. How it is done: (§1) 1. Guinea Pig Ileal Longitudinal Muscle (GPI). Ilea from guinea pigs were taken approximately 10 cm from the ileocecal junction, and a strip of longitudinal muscle with the myenteric plexus attached was prepared by the method of H. B. Rang et al., Brit. J Pharmacol., 1964, 22, 356. A 1 cm portion of this strip was then mounted between two platinum electrodes placed in a 10 ml organ bath and connected to an isometric transducer, contractions were recorded on a polygraph. Contractions of the ileal strip were initiated by supramaximal rectangular pulses in all preparations (80 V of 0.5 ms duration at a frequency of 0.1 Hz). Krebs bicarbonate solution containing […] chloropheniramine maleate was the bathing solution and was continuously bubbled with 95% O2 and 5% CO2. The organ bath was maintained at 36-37° C. The longitudinal strip was allowed to equilibrate with continuous stimulation for a minimum of 90 min. Cumulative concentration-response curves were determined after drugs were added to the bath in preselected amounts and washed out with buffer after noting their maximum effects.
(§2) The standard agonists employed were [D-Ala^2, D-Leu^5]enkephalin (DADLE) (D), morphine (M) and ethylketazocine (EKC); these are selective for delta (D), mu (M) and kappa (EKC) opioid receptors, respectively. Concentration-response curves were obtained in the absence (control) and the presence of the antagonist and were determined as IC50 values. The IC50 ratio represents the IC50 in the presence of the antagonist divided by the control IC50 value in the same tissue. A concentration independent value of antagonist potency is calculated from the equation, Ke=[antagonist]/(IC50 ratio-1).

For assay [2], the target named is T1, kappa (OP2) opioid receptor (Cavia porcellus, UniProt P41144).
T1 construct: a strip of longitudinal muscle with the myenteric plexus attached was prepared; from tissue; host or cells: guinea pig ileal longitudinal muscle with myenteric plexus
The assay can be described thus: Guinea pig ileal longitudinal muscle (GPI) smooth muscle assay, antagonism of ethylketazocine (EKC). It is filed as cell-based. How it is done: as §1, §2

The target in assay [3] is T2, wt κ receptor (Rattus norvegicus, UniProt P34975).
T2 construct: expressed in transfected cells; host or cells: COS-7 (per the earlier reading)
As to the kind of experiment: Competition binding with [3H]diprenorphine, whole cell binding, COS-7 cells, wt κ. From the text:
(§3) The effects of mutational exchange of Glu297 in the κ receptor and Lys303 in the μ receptor on the binding affinity of representative compounds of the invention were examined using techniques known in the art.

Assay [4] deals with T3, μ[K303E] receptor (Rattus norvegicus, UniProt P33535, K303E).
T3 construct: expressed in transfected cells; host or cells: COS-7 (per the earlier reading)
The assay can be described thus: Competition binding with [3H]diprenorphine, whole cell binding, COS-7 cells, μ[K303E].
Description: as §3

Assay [5] has as its target T4, δ(OP1) opioid receptor (Mus musculus, UniProt P32300).
T4 construct: Both vasa deferentia were dissected out of mice and mounted singly; from tissue; host or cells: mouse vas deferens
The assay can be described thus: Mouse vas deferens (MVD) smooth muscle assay, antagonism of DADLE. It is filed as cell-based. On the procedure: 2. Mouse Vas Deferens (MvD). This assay was performed according to the description by G. Henderson et al., Brit. J. Pharmacol., 1972, 46,764. Both vasa deferentia were dissected out of mice and mounted singly through two platinum electrodes in a 10 ml organ bath. The bath contained Krebs bicarbonate solution that was continuously bubbled with 95% O2 and 5% CO2. The organ bath was maintained at 37° C. The tissue was attached to an isometric transducer and stimulated transmurally with rectangular pulses ([…], 1 ms duration, supramaximal voltage). Drugs were added cumulatively to the bath in preselected amounts and washed out after noting their maximum effects.
as §2

For assay [6], the target named is T5, κ[E297K] receptor (Rattus norvegicus, UniProt P34975, E297K).
T5 construct: expressed in transfected cells; host or cells: COS-7 (per the earlier reading)
As to the kind of experiment: Competition binding with [3H]diprenorphine, whole cell binding, COS-7 cells, κ[E297K].
Description: as §3

Assay [7] deals with T6, wt μ receptor (Rattus norvegicus, UniProt P33535).
T6 construct: expressed in transfected cells; host or cells: COS-7 (per the earlier reading)
The assay can be described thus: Competition binding with [3H]diprenorphine, whole cell binding, COS-7 cells, wt μ.
Description: as §3

Assay [8] deals with wt μ receptor. The assay is described as above. The arrangement: species or system rat. Particulars: wt μ.
Description: as §3

For assay [9], the target named is T7, kappa opioid receptor (Cavia porcellus, UniProt P41144).
T7 construct: a strip of longitudinal muscle with the myenteric plexus attached was prepared; from tissue; host or cells: guinea pig ileal longitudinal muscle with myenteric plexus
As to the kind of experiment: GPI preparation, kappa antagonist potency against U-50488H. It is filed as cell-based, guinea pig. The conditions noted are these: GPI; agonist U-50488H; read-out: Ke. How it is done:
as §1

Setting [10] is: GPI, agonist EKC, antagonist concentration 100 nM, read-out: Antagonist Potency Ke κ(OP2) EKC.

For `CCNC(=N)Nc1ccc2[nH]c3c(c2c1)C[C@@]1(O)[C@H]2Cc4ccc(O)c5c4[C@@]1(CCN2CC1CC1)[C@H]3O5.O.O.O=C(O)C(F)(F)F.O=C(O)C(F)(F)F` [Compound 16, 5′-N-Ethylguanidinyl-17-cyclopropylmethyl-6,7-didehydro-4,5-α-epoxy-3,14-dihydroxyindolo[2′,3′:6,7]morphinan Ditrifluoroacetate Dihydrate], the “Antagonist Potency Ke μ(OP3) Morphine” value in assay [1] was 19.00 nM. Besides, the Kb in [2] (setting [10]) is 0.157 nM.

With `CCCCNC(=N)Nc1ccc2[nH]c3c(c2c1)C[C@@]1(O)[C@H]2Cc4ccc(O)c5c4[C@@]1(CCN2CC1CC1)[C@H]3O5.O.O.O=C(O)C(F)(F)F.O=C(O)C(F)(F)F` [Compound 17, 5′-N-Butylguanidinyl-17-cyclopropylmethyl-6,7-didehydro4,5α-epoxy-3,14-dihydroxyindolo[2′,3′:6,7]morphinan Ditrifluoroacetate Dihydrate], the Kb in assay [2] (setting [10]) came to 0.09 nM.

For `CNC(=N)Nc1ccc2[nH]c3c(c2c1)C[C@@]1(O)[C@H]2Cc4ccc(O)c5c4[C@@]1(CCN2CC1CC1)[C@H]3O5.O.O.O=C(O)C(F)(F)F.O=C(O)C(F)(F)F` [Compound 18, 5′-Methylguanidinyl-17-cyclopropylmethyl-6,7-didehydro4,5α-epoxy-3,14-dihydroxyindolo[2′,3′:6,7]morphinan Ditrifluoroacetate Dihydrate], the “Antagonist Potency Ke μ(OP3) Morphine” value in assay [1] is 10.8 nM. For the same compound, the Kb in assay [2] (setting [10]) worked out at 0.59 nM.

By Ki is commonly meant a dissociation constant, usually derived from enzyme kinetics or from competition with a known ligand. `N#C/N=C(\N)Nc1ccc2[nH]c3c(c2c1)C[C@@]1(O)C2Cc4ccc(O)c5c4[C@@]1(CCN2CC1CC1)C3O5` (stereo partly drawn) [Compound 19, 5′-N′-Cyano-N-[17-(cyclopropylmethyl)-6,7-didehydro4.5α-epoxy-3,14-dihydroxyindolo[2′,3′:6,7]morphinian]-Guanidine]: the “Antagonist Potency Ke μ(OP3) Morphine” value in assay [1] was 16.13 nM. In addition, the Ki in assay [3] was determined as 0.27 ± 0.01 nM; in assay [4] it was 0.29 ± 0.05 nM; in assay [6], 2.48 ± 0.82 nM; in assay [7] it was 4.04 ± 1.23 nM. Further, the “Fana = Ki(analog)/Ki(nor-BNI on the wt κ receptor)” value in assay [3] (wt κ) came out at 2.25. In addition, the “Fmut = mutational factor, Ki(mutant receptor)/Ki(wt κ receptor)” value worked out at 1.1 in [4] (μ[K303E]), 9.2 in [6] (κ[E297K]) and 15 in assay [8]. Moreover, the Kb in [5] worked out at 9.08 nM; in assay [2] it was 3.13 nM. For the same compound, the “kappa opioid receptor selectivity (in words)” value in assay [2] (in vitro, versus morphine and DADLE antagonism) is given as “demonstrated selectivity”.

With `CN(C)CCCN/C(=N\C#N)Nc1ccc2[nH]c3c(c2c1)C[C@@]1(O)C2Cc4ccc(O)c5c4[C@@]1(CCN2CC1CC1)C3O5` (stereo partly drawn) [Compound 20, 5′-N-Cyano-N′-[3-(dimethylaminopropyl)]-N″-[17-(cyclopropylmethyl)6,7-didehydro4,5α-epoxy-3,14-dihydroxyindolo[2′,3′:6,7]morphinian]-guanidine], the “Antagonist Potency Ke μ(OP3) Morphine” value in [1] stood at 10.4 nM. The compound further returned a Kb in assay [2] of 0.24 nM.

In the case of `N#C/N=C(\NCCN1CCCC1)Nc1ccc2[nH]c3c(c2c1)C[C@@]1(O)C2Cc4ccc(O)c5c4[C@@]1(CCN2CC1CC1)C3O5` (stereo partly drawn) [Compound 21, 5′-N-Cyano-N′-[2-(1-aminoethylpyrrolidine)]-N″-[17-(cyclopropylmethyl)-6,7-didehydro4,5α-epoxy-3,14dihydroxyindolo[2′,3′:6,7]morphinian]-guanidine], in assay [1], the “Antagonist Potency Ke μ(OP3) Morphine” value was determined as 5.71 nM. Besides, the figures for the Kb in assay [5] and in [2] were 127 nM and 0.47 nM, respectively.

As to `Oc1ccc2c3c1O[C@H]1c4[nH]c5ccccc5c4C[C@@]4(O)[C@@H](C2)N(CC2CC2)CC[C@]314` [Naltrindole (NTI) 1, naltrindole, reference compound], the Kb in assay [2] (setting [10]) was determined as 45 nM.

On to `Oc1ccc2c3c1O[C@H]1c4[nH]c5c(c4C[C@@]4(O)[C@@H](C2)N(CC2CC2)CC[C@]314)C[C@@]1(O)[C@H]2Cc3ccc(O)c4c3[C@@]1(CCN2CC1CC1)[C@H]5O4` [nor-BNI, norbinaltorphimine, reference compound], for which, in assay [1], the “Antagonist Potency Ke μ(OP3) Morphine” value stood at 13.7 nM. Also, the Ki in [3] ([3H]diprenorphine competition, COS-7 whole cell binding, read-out: Ki ± SEM, wt κ) was determined as 0.12 ± 0.04 nM; in assay [6] ([3H]diprenorphine competition, COS-7 whole cell binding, read-out: Ki ± SEM, κ[E297K]), 12.5 ± 0.92 nM. Besides, the Kb in assay [2] (setting [10]) worked out at 0.56 nM; in assay [9] it was 0.2 nM.
